Results from ChEMBL document CHEMBL1201862, “PubChem BioAssay data set” (2004).
Structures can show the parent of a compound that is named as a salt. Active and inactive are the calls of the source.

Key:
[1] = molecular target: Voltage-dependent T-type calcium channel subunit alpha-1H (Homo sapiens, UniProt O95180); test: human CACNA1H calcium influx blockade – cell-based, synthetic library set 2, HEK293 HH8, Fluo-4, SAR follow-up (AID 493023); type: functional
[2] = molecular target: T1, Bcl-2-related protein A1 (Mus musculus, UniProt Q07440); type: functional;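 note: confirmatory dose–response counterscreen on Bfl-1, used to check hits from a UBC13 polyubiquitin inhibitor campaign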
T1 sequence (Q07440 whole entry): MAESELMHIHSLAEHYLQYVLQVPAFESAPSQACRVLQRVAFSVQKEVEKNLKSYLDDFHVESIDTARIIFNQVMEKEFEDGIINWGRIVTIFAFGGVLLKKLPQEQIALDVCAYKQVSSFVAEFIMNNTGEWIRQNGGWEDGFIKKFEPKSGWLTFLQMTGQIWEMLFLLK

[3] = molecular target: T2, Ubiquitin-conjugating enzyme E2 N (Homo sapiens, UniProt P61088); type: functional
T2 sequence (P61088 whole entry): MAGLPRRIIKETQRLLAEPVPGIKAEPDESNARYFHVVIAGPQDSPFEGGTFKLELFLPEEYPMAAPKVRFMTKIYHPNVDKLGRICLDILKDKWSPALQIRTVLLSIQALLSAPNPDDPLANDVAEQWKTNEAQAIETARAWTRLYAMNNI

[4] = molecular target: T2, Ubiquitin-conjugating enzyme E2 N; type: functional; remark: listed apart in the source
[5] = system: HEK293; test: cells; settings: Homo sapiens
[6] = molecular target: Genome polyprotein (dengue virus type 2, UniProt P29990); test: flavivirus cap methylation enzyme inhibition – biochemical, confirmation dose response, primary screen (AID 588689); type: functional
[7] = system: HEK293; test: cells; settings: Homo sapiens; remark: listed apart in the source
[8] = molecular target: Heat shock protein HSP 90-alpha (Homo sapiens, UniProt P07900); type: functional, organism-based
[9] = system: Streptococcus sp. 'group A'; test: Streptococcus pyogenes SK(-)GAS viability under kanamycin – luminescence, BacTiterGlo, confirmation, counter-screen for streptokinase expression inhibitor project, dose response (AID 1900); type: functional, organism-based
[10] = system: Streptococcus; test: GAS UMAA2166 growth inhibition – luminescence, BacTiterGlo, counter-screen for streptokinase expression inhibitor project, dose response (AID 1915); type: functional, organism-based;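 note: potency for reduction of bacterial viability or growth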
[11] = molecular target: T3, Streptokinase A (Streptococcus pyogenes serotype M1, UniProt P10520); test: viability-normalized secreted streptokinase activity reduction – plasminogen activation absorbance, OD405, dose response (AID 1914); type: functional, Streptococcus pyogenes M1 GAS;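 note: secreted streptokinase activity via plasminogen activation per viability signal from cell pellet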
T3 sequence (P10520 whole entry): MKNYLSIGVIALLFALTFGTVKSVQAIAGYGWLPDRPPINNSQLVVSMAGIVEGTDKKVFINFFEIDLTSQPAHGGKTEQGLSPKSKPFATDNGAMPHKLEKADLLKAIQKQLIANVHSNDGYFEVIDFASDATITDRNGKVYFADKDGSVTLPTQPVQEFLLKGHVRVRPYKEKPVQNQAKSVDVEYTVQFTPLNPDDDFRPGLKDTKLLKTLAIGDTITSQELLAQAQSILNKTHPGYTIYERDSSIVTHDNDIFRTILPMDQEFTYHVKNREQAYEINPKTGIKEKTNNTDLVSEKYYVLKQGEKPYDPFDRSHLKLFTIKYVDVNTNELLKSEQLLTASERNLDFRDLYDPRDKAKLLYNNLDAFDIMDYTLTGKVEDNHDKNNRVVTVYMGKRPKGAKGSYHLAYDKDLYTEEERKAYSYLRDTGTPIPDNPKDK

[12] = molecular target: T4, Polyadenylate-binding protein 1 (Homo sapiens, UniProt P11940); test: MLLE domain peptide-binding blockers, IC50 – biochemical, fluorescence polarization, FITC-PAM2 peptide, dose response (AID 602259); type: functional; settings: read-out: IC50_Mean
[13] = molecular target: T4, Polyadenylate-binding protein 1; test: MLLE binding blockers, Cy5 peptide tracer – biochemical, fluorescence polarization, Cy5-PAM2 peptide, secondary, miRNA deadenylation inhibitor project, dose response (AID 602260); type: functional; settings: read-out: IC50_Mean
[14] = molecular target: T5, Dual specificity protein phosphatase 3 (Homo sapiens, UniProt P51452); test: VHR1 phosphatase inhibitors, primary screen, biochemical, absorbance, uHTS (AID 1654)
[15] = molecular target: T5, Dual specificity protein phosphatase 3; test: VHR1 phosphatase inhibitors, biochemical (AID 1878)
[16] = molecular target: T6, Dual specificity protein phosphatase 6 (Rattus norvegicus, UniProt Q64346); test: inhibition of rat DUSP6 enzyme activity – biochemical, in vitro, primary screen (AID 425)
T6 sequence (Q64346 whole entry): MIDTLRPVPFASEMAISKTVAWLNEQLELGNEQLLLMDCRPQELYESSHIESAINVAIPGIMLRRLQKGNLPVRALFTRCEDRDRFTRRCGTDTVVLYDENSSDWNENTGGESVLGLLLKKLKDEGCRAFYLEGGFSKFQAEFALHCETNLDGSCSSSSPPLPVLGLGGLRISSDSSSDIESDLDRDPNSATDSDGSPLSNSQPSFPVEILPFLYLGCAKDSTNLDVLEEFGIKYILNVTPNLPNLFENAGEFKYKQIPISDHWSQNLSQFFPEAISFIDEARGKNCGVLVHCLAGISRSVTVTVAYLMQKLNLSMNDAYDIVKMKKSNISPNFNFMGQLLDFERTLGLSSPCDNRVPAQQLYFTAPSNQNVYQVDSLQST

[17] = molecular target: SUMO-activating enzyme (Homo sapiens, UniProt Q9UBT2); test: blockers of UBC9-mediated SUMO conjugation – biochemical, AlphaScreen, SUMOylation inhibitor project, confirmation (AID 2018); type: functional
[18] = molecular target: DNA damage-inducible transcript 3 protein (Mus musculus, UniProt P35639); type: functional, Cricetulus griseus
[19] = molecular target: T7, X-box-binding protein 1 (Homo sapiens, UniProt P17861); type: functional, Cricetulus griseus;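 note: confirmatory dose-response counter-screen serving a CHOP assay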
T7 sequence (P17861 whole entry): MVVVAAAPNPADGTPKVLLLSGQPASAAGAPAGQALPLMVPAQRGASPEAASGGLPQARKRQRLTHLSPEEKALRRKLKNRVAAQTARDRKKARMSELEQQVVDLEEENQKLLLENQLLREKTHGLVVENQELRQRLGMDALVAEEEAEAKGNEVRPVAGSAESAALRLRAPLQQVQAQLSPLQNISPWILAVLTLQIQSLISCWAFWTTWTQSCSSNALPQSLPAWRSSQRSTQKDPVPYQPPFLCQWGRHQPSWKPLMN

[20] = molecular target: Lysine-specific demethylase 4C (Homo sapiens, UniProt Q9H3R0); test: inhibition of JMJD2C H3K9me3 demethylation – biochemical, DELFIA europium, cherry-picked samples, dose response (AID 488835); type: functional

Voltage-dependent T-type calcium channel subunit alpha-1H, sequence (O95180 whole entry): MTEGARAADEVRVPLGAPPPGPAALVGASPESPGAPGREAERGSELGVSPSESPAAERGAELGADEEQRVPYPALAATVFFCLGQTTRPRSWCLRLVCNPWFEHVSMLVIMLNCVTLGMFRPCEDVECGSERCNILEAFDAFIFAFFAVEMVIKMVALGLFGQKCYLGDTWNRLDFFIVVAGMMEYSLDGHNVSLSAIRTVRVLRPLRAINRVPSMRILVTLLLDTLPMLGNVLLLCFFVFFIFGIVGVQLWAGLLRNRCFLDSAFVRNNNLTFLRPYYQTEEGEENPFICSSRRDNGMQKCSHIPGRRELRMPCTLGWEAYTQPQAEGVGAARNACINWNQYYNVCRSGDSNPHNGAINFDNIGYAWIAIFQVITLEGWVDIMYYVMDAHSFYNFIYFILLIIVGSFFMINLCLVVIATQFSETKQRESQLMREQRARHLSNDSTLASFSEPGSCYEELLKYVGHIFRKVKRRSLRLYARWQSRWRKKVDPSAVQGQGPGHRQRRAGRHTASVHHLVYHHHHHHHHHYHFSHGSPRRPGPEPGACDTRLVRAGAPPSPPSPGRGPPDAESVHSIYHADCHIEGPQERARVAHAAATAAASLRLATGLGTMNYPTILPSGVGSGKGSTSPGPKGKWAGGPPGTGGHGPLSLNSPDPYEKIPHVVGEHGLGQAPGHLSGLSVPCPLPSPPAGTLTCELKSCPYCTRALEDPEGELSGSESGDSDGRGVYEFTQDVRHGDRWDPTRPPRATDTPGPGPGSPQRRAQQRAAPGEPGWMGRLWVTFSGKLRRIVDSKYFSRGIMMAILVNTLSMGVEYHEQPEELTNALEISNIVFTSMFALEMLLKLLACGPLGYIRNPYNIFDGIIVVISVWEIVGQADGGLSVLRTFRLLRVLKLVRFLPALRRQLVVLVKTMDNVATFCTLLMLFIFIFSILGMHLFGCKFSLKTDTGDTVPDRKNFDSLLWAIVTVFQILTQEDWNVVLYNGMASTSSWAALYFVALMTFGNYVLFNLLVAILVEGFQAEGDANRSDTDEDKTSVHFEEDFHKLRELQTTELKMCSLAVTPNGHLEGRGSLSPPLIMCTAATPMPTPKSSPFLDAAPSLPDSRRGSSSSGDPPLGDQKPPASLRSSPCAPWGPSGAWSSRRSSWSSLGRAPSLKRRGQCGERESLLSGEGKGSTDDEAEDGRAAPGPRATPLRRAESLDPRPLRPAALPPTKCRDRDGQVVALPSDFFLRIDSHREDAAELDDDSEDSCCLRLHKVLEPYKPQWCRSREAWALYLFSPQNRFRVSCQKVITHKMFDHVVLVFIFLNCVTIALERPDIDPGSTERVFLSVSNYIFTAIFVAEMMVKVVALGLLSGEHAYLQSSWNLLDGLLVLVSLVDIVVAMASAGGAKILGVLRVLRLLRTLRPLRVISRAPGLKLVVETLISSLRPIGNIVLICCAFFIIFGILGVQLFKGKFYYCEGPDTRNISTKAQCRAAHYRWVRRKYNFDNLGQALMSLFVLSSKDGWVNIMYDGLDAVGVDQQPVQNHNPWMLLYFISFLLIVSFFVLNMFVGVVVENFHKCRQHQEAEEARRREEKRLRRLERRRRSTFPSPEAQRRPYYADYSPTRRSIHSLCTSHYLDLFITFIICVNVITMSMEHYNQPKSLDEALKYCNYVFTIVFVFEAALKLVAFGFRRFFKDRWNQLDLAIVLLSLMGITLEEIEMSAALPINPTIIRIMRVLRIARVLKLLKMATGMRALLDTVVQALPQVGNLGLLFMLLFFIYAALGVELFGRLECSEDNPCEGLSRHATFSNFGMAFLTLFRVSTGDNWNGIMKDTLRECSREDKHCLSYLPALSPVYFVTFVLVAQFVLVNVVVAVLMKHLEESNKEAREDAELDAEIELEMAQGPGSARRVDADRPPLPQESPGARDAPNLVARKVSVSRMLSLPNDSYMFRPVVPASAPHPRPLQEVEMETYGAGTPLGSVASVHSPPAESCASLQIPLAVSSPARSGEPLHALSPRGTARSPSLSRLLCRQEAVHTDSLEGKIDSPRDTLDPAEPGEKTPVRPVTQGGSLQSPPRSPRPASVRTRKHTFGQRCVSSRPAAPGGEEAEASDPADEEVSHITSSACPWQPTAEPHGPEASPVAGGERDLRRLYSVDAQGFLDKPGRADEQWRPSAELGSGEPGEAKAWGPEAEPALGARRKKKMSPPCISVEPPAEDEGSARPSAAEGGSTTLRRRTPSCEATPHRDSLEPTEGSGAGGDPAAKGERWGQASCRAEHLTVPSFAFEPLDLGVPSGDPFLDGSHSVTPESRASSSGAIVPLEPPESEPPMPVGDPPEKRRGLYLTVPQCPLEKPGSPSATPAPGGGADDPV
T4 sequence (P11940 whole entry, the tested form may be a part): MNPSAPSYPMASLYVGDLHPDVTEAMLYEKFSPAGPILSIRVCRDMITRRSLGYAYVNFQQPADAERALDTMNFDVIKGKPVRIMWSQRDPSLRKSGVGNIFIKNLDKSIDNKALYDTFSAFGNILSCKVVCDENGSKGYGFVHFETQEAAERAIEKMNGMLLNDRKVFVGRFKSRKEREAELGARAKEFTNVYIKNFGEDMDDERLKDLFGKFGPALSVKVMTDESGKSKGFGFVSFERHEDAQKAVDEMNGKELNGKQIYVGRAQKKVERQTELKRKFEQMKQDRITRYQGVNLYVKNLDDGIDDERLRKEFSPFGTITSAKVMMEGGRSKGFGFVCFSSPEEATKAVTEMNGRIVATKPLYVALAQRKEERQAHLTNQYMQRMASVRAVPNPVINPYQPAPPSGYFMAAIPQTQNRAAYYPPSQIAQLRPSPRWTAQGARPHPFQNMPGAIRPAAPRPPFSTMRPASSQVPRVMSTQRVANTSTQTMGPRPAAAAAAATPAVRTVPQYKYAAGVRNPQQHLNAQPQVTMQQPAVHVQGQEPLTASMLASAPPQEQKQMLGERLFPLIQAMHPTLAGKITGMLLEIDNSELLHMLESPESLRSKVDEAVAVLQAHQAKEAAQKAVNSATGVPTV
T5 sequence (P51452 whole entry): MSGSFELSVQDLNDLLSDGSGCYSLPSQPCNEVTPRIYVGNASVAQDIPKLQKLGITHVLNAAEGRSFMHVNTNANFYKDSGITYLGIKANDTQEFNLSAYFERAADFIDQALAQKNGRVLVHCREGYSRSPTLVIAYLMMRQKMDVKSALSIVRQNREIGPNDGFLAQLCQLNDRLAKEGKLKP
SUMO-activating enzyme, sequence (Q9UBE0 whole entry): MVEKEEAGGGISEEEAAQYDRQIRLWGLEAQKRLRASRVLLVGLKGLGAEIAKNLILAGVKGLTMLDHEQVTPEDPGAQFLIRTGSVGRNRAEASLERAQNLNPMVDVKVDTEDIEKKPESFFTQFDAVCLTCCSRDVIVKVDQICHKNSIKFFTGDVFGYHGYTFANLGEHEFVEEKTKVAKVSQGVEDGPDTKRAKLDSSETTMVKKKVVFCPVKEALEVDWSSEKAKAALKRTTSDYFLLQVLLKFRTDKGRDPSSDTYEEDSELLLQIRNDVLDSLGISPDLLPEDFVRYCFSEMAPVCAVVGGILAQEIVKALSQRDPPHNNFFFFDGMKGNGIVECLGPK
SUMO-activating enzyme, sequence (Q9UBT2 whole entry): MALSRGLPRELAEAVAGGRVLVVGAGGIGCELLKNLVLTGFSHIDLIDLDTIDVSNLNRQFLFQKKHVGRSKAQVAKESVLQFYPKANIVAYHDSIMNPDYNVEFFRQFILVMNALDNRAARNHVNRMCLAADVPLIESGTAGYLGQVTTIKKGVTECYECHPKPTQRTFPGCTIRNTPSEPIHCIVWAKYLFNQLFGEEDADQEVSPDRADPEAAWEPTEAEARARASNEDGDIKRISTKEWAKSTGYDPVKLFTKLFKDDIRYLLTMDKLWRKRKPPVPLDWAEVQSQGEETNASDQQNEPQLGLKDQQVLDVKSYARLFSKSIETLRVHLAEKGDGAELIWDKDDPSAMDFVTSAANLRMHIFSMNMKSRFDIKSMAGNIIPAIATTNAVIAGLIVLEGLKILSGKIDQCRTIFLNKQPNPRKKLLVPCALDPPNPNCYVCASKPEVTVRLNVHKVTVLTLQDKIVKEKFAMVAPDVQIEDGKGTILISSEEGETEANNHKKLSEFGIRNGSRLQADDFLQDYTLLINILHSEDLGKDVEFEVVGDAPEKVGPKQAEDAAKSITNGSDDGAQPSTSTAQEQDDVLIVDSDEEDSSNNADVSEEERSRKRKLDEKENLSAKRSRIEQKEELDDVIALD
Genome polyprotein, sequence (P29990 2492-3391 limits assumed): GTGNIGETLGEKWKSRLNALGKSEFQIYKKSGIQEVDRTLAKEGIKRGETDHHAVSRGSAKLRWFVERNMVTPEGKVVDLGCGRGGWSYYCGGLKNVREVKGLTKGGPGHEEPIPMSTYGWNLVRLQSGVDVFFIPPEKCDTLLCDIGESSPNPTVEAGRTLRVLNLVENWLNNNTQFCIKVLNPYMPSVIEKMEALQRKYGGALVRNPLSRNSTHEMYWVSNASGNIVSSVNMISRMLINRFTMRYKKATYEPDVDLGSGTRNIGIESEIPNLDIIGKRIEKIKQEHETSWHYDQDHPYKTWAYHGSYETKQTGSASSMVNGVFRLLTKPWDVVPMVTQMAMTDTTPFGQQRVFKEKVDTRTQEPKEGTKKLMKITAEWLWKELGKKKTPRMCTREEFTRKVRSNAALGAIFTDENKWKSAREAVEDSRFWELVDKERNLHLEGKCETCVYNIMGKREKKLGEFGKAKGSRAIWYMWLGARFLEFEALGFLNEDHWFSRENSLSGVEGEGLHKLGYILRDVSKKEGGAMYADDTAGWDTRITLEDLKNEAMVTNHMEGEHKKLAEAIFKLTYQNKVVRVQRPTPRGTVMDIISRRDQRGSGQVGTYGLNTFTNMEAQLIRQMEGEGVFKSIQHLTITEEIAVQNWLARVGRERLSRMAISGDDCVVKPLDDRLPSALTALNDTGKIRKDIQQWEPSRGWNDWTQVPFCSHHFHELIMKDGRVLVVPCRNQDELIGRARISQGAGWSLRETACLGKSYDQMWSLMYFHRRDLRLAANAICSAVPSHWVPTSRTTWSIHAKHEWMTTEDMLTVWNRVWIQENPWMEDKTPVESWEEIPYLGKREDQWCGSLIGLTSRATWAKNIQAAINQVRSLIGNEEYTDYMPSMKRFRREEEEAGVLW

Structure (SMILES): O=C(NC1CCC2CN(Cc3ccccc3)CC21)c1cc(Cl)cc(Cl)c1 (stereo unspecified)
- EC50 [1]: 4 µM (active)

Structure (SMILES): NCCCNCCCCNCCCN [SPERMINE TETRAHYDROCHLORIDE]
- IC50 [2]: > 20 µM (inactive)
- IC50 [3]: 14.3 µM (active)
- IC50 [4]: 15.6 µM (active)

Structure (SMILES): COC(=O)[C@@H]1[C@@H](C#N)C2(c3ccccc3-c3ccccc32)N(c2ccc(Cl)cc2)N1C#N
- EC50 [5]: > 59.6 µM (inactive)
- IC50 [6]: 92.4 µM (active)
- EC50 [7]: > 59.6 µM (inactive)
- AC50 [8]: 1.7 µM (active)
- EC50 [9]: 5.91 µM (active)
- EC50 [10]: 19 µM (active)
- EC50 [11]: 63.1 µM (active)

Structure (SMILES): S=C(NCCCN1CCOCC1)NCCCN1CCOCC1
- IC50 [12]: > 66 µM (inactive)
- IC50 [13]: > 66 µM (inactive)
- IC50 [14]: 2.61 µM (active)
- IC50 [15]: 6.17 µM (active)
- IC50 [16]: > 158 µM (not active)

Structure (SMILES): Nc1c(C(=O)NCc2ccco2)c2nc3ccccc3nc2n1CCc1ccccc1
- IC50 [17]: 1.87 µM (active)

Structure (SMILES): CCCCC1=CC2=C(c3ccco3)C(=O)C(C)(OC(=O)c3ccc(OC)cc3)C(=O)C2=CN1Cc1ccccc1 (stereo unspecified)
- Absolute IC50 (CHOP) [18]: 10 µM
- Absolute IC50 (XBP1) [19]: 10 µM

Structure (SMILES): CN1C(=O)C(Cc2ccc(OCc3ccccc3)cc2)C(=O)N(C)C1=O
- AC50 [20]: 9.21 µM (active)

Structure (SMILES): CC(C)(C)CCN1CCC[C@H](NC(=O)COc2ccc(F)c(Cl)c2)C1
- EC50 [1]: 10 µM (active)
